≈ marks a conversion by molar mass, not a printed value. Like-named read-outs stand apart in the source and are kept apart here.
Tests used:
Clostridium difficile [1] = assay type: cell-based; conditions: Table 16
Source text: The A41030 antibiotic factors A, B, C, D, E, F, and G, are also active against a number of strains of Clostridium difficile, as determined by the agar-dilution method.

Pc. constellatus = test: Agar-dilution MIC (anaerobes); assay type: cell-based, Peptococcus constellatus; conditions: Table 15; Pc. constellatus 1468
Procedure: (§1) The MIC values were determined by the agar-dilution method, and are recorded in Table 15, which follows.

Clostridium difficile [2] = assay type: cell-based; conditions: Table 14; Clostridium difficile 2994
Streptococcus pyogenes = test: Agar-dilution MIC; assay type: cell-based
Source text: (§2) The agar-dilution procedure described by the International Collaborative study (ICS) group was used to determine the minimum inhibitory concentrations (MIC's).

[3] = tested on: Streptococcus sp. (Group D); test: Agar-dilution MIC; assay type: cell-based
Source text: as §2

Bacteroides fragilis = test: Agar-dilution MIC (anaerobes); assay type: cell-based
Source text: as §2

S. pyogenes [4] = test: In vivo oral activity against S. pyogenes in mice
[5] = tested on: Bacteroides melaninogenicus; test: Agar-dilution MIC (anaerobes); assay type: cell-based; conditions: Table 14; Bacteroides melaninogenicus 2736
Solubility in solvents = assay type: physicochemical; conditions: solvents as named
Source text: The seven antibiotic factors are recovered from the fermentation and are obtained as a mixture, the A41030 complex. It will be recognized that the ratio of the factors in the A41030 complex will vary, depending upon the fermentation conditions used. The individual factors […], and G are separated and isolated as individual compounds, as hereinafter described.

S. pneumoniae = test: Experimental bacterial infection in mice, subcutaneous ED50; assay type: in vivo; conditions: two doses subcutaneously
Procedure: (§3) All of the A41030 factors tested have shown in vivo antimicrobial activity against experimental bacterial infections. When two doses of test compound were administered subcutaneously to mice in illustrative infections, the activity observed is measured as an ED50 value [effective dose in mg./kg. to protect fifty percent of the test animals: See Warren Wick, et al., J. Bacteriol. 81, 233-235 (1961)].

S. pyogenes [6] = test: as above; assay type: in vivo; conditions: two doses subcutaneously
Procedure: as §3

Staph. aureus = test: as above; assay type: in vivo; conditions: two doses subcutaneously
Procedure: as §3

Peptococcus prevoti = test: Agar-dilution MIC (anaerobes); assay type: cell-based
[7] = tested on: Peptostreptococcus anaerobius; test: Agar-dilution MIC (anaerobes); assay type: cell-based
Clostridium perfringens = assay type: cell-based; conditions: Table 14; Clostridium perfringens 81
[8] = tested on: Peptococcus asaccharolyticus; test: Agar-dilution MIC (anaerobes); assay type: cell-based; conditions: Table 15
Procedure: as §1

Bacteroides vulgatis = test: Agar-dilution MIC (anaerobes); assay type: cell-based; conditions: Table 12; 24-hour; B. vulgatis 1563
Source text: (§4) The A41030 antibiotics, factors A, B, and C, are active against a genus of anaerobic bacteria identified as Bacteroides sp., the 24-hour MIC values being determined by the agar-dilution method, and are set forth in Table 12, which follows.

Bacteroides corrodens [9] = test: Agar-dilution MIC (anaerobes); assay type: cell-based; conditions: Table 12; 24-hour; B. corrodens 1874
Source text: as §4

[10] = Electrometric titration (pKa); assay type: physicochemical; conditions: electrometric titration in 66% dimethylformamide in water
B. thetaiotaomicron = assay type: cell-based
Source text: as §2

[11] = tested on: Fusobacterium necrophorum; test: Agar-dilution MIC (anaerobes); assay type: cell-based; conditions: Table 14; Fusobacterium necrophorum 6054A
[12] = tested on: Peptostreptococcus intermedius; test: Agar-dilution MIC (anaerobes); assay type: cell-based
Bacteroides corrodens [13] = test: Agar-dilution MIC (anaerobes); assay type: cell-based; conditions: Table 14; Bacteroides corrodens 1874

NC1C(=O)NC2Cc3ccc(c(Cl)c3)Oc3cc4cc(c3O)Oc3ccc(cc3Cl)C(O)C3NC(=O)C(NC(=O)C4NC(=O)C(NC2=O)c2cc(O)cc(c2)Oc2cc1ccc2O)c1cc(Cl)c(O)c(c1)-c1c(O)cc(O)cc1C(C(=O)O)NC3=O (stereo not drawn) [A41030 factor A]
MIC (Clostridium difficile [1]; C. difficile 78): 1.0 µg/mL (≈ 0.811 µM) | MIC (Clostridium difficile [1]; C. difficile 107B): 1.0 µg/mL (≈ 0.811 µM) | MIC (Clostridium difficile [1]; C. difficile 111F): 1.0 µg/mL (≈ 0.811 µM) | MIC (Clostridium difficile [1]; C. difficile 1153): 1.0 µg/mL (≈ 0.811 µM) | MIC (Clostridium difficile [1]; C. difficile 2634): 1.0 µg/mL (≈ 0.811 µM) | MIC (Clostridium difficile [1]; C. difficile 3424-5B): 1.0 µg/mL (≈ 0.811 µM) | MIC (Clostridium difficile [1]; C. difficile 3816): 1.0 µg/mL (≈ 0.811 µM) | MIC (Clostridium difficile [1]; C. difficile 3950): 1.0 µg/mL (≈ 0.811 µM) | MIC (Clostridium difficile [1]; C. difficile 6890): 1.0 µg/mL (≈ 0.811 µM) | MIC (Clostridium difficile [1]; C. difficile 8484): 1.0 µg/mL (≈ 0.811 µM) | MIC (Clostridium difficile [1]; C. difficile A-194): 1.0 µg/mL (≈ 0.811 µM) | MIC (Clostridium difficile [1]; C. difficile A-195): 1.0 µg/mL (≈ 0.811 µM) | MIC (Clostridium difficile [1]; C. difficile A-196): 1.0 µg/mL (≈ 0.811 µM) | MIC (Clostridium difficile [1]; C. difficile A-279): 1.0 µg/mL (≈ 0.811 µM) | MIC (Clostridium difficile [1]; C. difficile A-280): 1.0 µg/mL (≈ 0.811 µM) | MIC (Clostridium difficile [1]; C. difficile A-281): 1.0 µg/mL (≈ 0.811 µM) | MIC (Clostridium difficile [1]; C. difficile WAL-2112): 1.0 µg/mL (≈ 0.811 µM) | MIC (Clostridium difficile [1]; C. difficile WAL-3657): 1.0 µg/mL (≈ 0.811 µM) | MIC (Clostridium difficile [1]; C. difficile WAL-4268): 1.0 µg/mL (≈ 0.811 µM) | MIC (Pc. constellatus): 0.5 µg/mL (≈ 0.405 µM) | MIC (Clostridium difficile [2]): 32 µg/mL (≈ 25.9 µM) | MIC (Streptococcus pyogenes; Table 11, S. pyogenes 9943): 0.25 µg/mL (≈ 0.203 µM) | MIC (Streptococcus pyogenes; Table 11, S. pyogenes 10389): 0.25 µg/mL (≈ 0.203 µM) | MIC (Streptococcus pyogenes; Table 11, S. pyogenes 12344): 0.5 µg/mL (≈ 0.405 µM) | MIC (Streptococcus pyogenes; Table 11, S. pyogenes C203): 0.25 µg/mL (≈ 0.203 µM) | MIC (Streptococcus pyogenes; Table 11, S. pyogenes M-6517): 0.25 µg/mL (≈ 0.203 µM) | MIC (Streptococcus pyogenes; Table 17, 24 hours, Streptococcus pyogenes C203): 0.5 µg/mL (≈ 0.405 µM) | MIC (Streptococcus pyogenes; Table 18, 24 hours, Streptococcus pyogenes C203): 0.25 µg/mL (≈ 0.203 µM) | MIC ([3]; Table 11, Streptococcus sp. (Group D) 238): 0.25 µg/mL (≈ 0.203 µM) | MIC ([3]; Table 11, Streptococcus sp. (Group D) 282): 0.25 µg/mL (≈ 0.203 µM) | MIC ([3]; Table 11, Streptococcus sp. (Group D) 9901): 0.25 µg/mL (≈ 0.203 µM) | MIC ([3]; Table 11, Streptococcus sp. (Group D) 12253F): 0.25 µg/mL (≈ 0.203 µM) | MIC ([3]; Table 11, Streptococcus sp. (Group D) Guze): 0.25 µg/mL (≈ 0.203 µM) | MIC ([3]; Table 17, 24 hours, Streptococcus sp. Group D 9960): 2 µg/mL (≈ 1.62 µM) | MIC ([3]; Table 17, 24 hours, Streptococcus sp. Group D X66): 1 µg/mL (≈ 0.811 µM) | MIC ([3]; Table 18, 24 hours, Streptococcus sp. Group D 2041): 0.5 µg/mL (≈ 0.405 µM) | MIC ([3]; Table 18, 24 hours, Streptococcus sp. Group D 2058): 0.5 µg/mL (≈ 0.405 µM) | MIC ([3]; Table 18, 24 hours, Streptococcus sp. Group D 8043): 0.25 µg/mL (≈ 0.203 µM) | MIC ([3]; Table 18, 24 hours, Streptococcus sp. Group D 9901): 1 µg/mL (≈ 0.811 µM) | MIC ([3]; Table 18, 24 hours, Streptococcus sp. Group D 9960): 0.5 µg/mL (≈ 0.405 µM) | MIC ([3]; Table 18, 24 hours, Streptococcus sp. Group D 12253F): 0.25 µg/mL (≈ 0.203 µM) | MIC ([3]; Table 18, 24 hours, Streptococcus sp. Group D Mx161): 0.25 µg/mL (≈ 0.203 µM) | MIC ([3]; Table 18, 24 hours, Streptococcus sp. Group D X66): 0.25 µg/mL (≈ 0.203 µM) | MIC (Bacteroides fragilis; Table 12, 24-hour, B. fragilis 2): 64 µg/mL (≈ 51.9 µM) | MIC (Bacteroides fragilis; Table 12, 24-hour, B. fragilis 9): 64 µg/mL (≈ 51.9 µM) | MIC (Bacteroides fragilis; Table 12, 24-hour, B. fragilis 103): 32 µg/mL (≈ 25.9 µM) | MIC (Bacteroides fragilis; Table 12, 24-hour, B. fragilis 104): 32 µg/mL (≈ 25.9 µM) | MIC (Bacteroides fragilis; Table 12, 24-hour, B. fragilis 106): 64 µg/mL (≈ 51.9 µM) | MIC (Bacteroides fragilis; Table 12, 24-hour, B. fragilis 107): 32 µg/mL (≈ 25.9 µM) | MIC (Bacteroides fragilis; Table 12, 24-hour, B. fragilis 108): 32 µg/mL (≈ 25.9 µM) | MIC (Bacteroides fragilis; Table 12, 24-hour, B. fragilis 110): 64 µg/mL (≈ 51.9 µM) | MIC (Bacteroides fragilis; Table 12, 24-hour, B. fragilis 111): 32 µg/mL (≈ 25.9 µM) | MIC (Bacteroides fragilis; Table 12, 24-hour, B. fragilis 112): 64 µg/mL (≈ 51.9 µM) | MIC (Bacteroides fragilis; Table 12, 24-hour, B. fragilis 113): 32 µg/mL (≈ 25.9 µM) | MIC (Bacteroides fragilis; Table 12, 24-hour, B. fragilis 1451): 64 µg/mL (≈ 51.9 µM) | MIC (Bacteroides fragilis; Table 12, 24-hour, B. fragilis 1470): 64 µg/mL (≈ 51.9 µM) | MIC (Bacteroides fragilis; Table 12, 24-hour, B. fragilis 1877): 32 µg/mL (≈ 25.9 µM) | MIC (Bacteroides fragilis; Table 12, 24-hour, B. fragilis 9032): 64 µg/mL (≈ 51.9 µM) | MIC (Bacteroides fragilis; Table 14, Bacteroides fragilis 111): 128 µg/mL (≈ 104 µM) | MIC (Bacteroides fragilis; Table 14, Bacteroides fragilis 1877): 32 µg/mL (≈ 25.9 µM) | MIC (Bacteroides fragilis; Table 14, Bacteroides fragilis 1936B): 64 µg/mL (≈ 51.9 µM) | in vivo oral activity (S. pyogenes [4]): > 300 mg./kg.X2 | MIC [5]: 4 µg/mL (≈ 3.24 µM) | Solubility (Solubility in solvents): soluble in alcohol-water mixtures, in dimethylsulfoxide, in dimethylformamide, in dimethylsulfoxide-water mixtures, in dimethylformamide-water mixtures, in dilute aqueous acid, and in dilute aqueous base | ED50 (S. pneumoniae): 1.68 mg/kg | ED50 (S. pyogenes [6]): 2.8 mg/kg | ED50 (Staph. aureus): 1.4 mg/kg | MIC (Peptococcus prevoti; Table 14, Peptococcus prevoti 1281): ≤ 0.25 µg/mL | MIC (Peptococcus prevoti; Table 15, Pc. prevoti 1281): 0.5 µg/mL (≈ 0.405 µM) | MIC (Peptococcus prevoti; Table 15, Pc. prevoti 1293): 1.0 µg/mL (≈ 0.811 µM) | MIC (Peptococcus prevoti; Table 15, Pc. prevoti 1407): 1.0 µg/mL (≈ 0.811 µM) | MIC ([7]; Table 14, Peptostreptococcus anaerobius 1428): ≤ 0.25 µg/mL | MIC ([7]; Table 15, Ps. anaerobius 8): 0.5 µg/mL (≈ 0.405 µM) | MIC ([7]; Table 15, Ps. anaerobius 52): 0.5 µg/mL (≈ 0.405 µM) | MIC ([7]; Table 15, Ps. anaerobius 59): 0.5 µg/mL (≈ 0.405 µM) | MIC ([7]; Table 15, Ps. anaerobius 1418): ≤ 0.03 µg/mL | MIC ([7]; Table 15, Ps. anaerobius 1428): 0.5 µg/mL (≈ 0.405 µM) | MIC ([7]; Table 15, Ps. anaerobius 1451): 0.5 µg/mL (≈ 0.405 µM) | MIC ([7]; Table 15, Ps. anaerobius 1477): 0.5 µg/mL (≈ 0.405 µM) | MIC (Clostridium perfringens): 0.5 µg/mL (≈ 0.405 µM) | MIC ([8]; Pc. asaccharolyticus 1302): ≤ 0.03 µg/mL | MIC ([8]; Pc. asaccharolyticus 1344): 0.5 µg/mL (≈ 0.405 µM) | MIC (Bacteroides vulgatis): 32 µg/mL (≈ 25.9 µM) | MIC (Bacteroides corrodens [9]): 32 µg/mL (≈ 25.9 µM) | pKa, first titratable group [10]: about 5.53 | pKa, second titratable group [10]: ~7.60 | pKa, third titratable group [10]: ~10.37 | MIC (B. thetaiotaomicron; Table 12, 24-hour, B. thetaiotaomicron 1438): 64 µg/mL (≈ 51.9 µM) | MIC (B. thetaiotaomicron; Table 12, 24-hour, B. thetaiotaomicron 1900A): 128 µg/mL (≈ 104 µM) | MIC (B. thetaiotaomicron; Table 14, Bacteroides thetalotaomicron 1438): 64 µg/mL (≈ 51.9 µM) | MIC [11]: 8 µg/mL (≈ 6.49 µM) | MIC ([12]; Table 14, Peptostreptococcus intermedius 1264): 1.0 µg/mL (≈ 0.811 µM) | MIC ([12]; Table 15, Ps. intermedius 1264): ≤ 0.03 µg/mL | MIC ([12]; Table 15, Ps. intermedius 1524): 0.5 µg/mL (≈ 0.405 µM) | MIC ([12]; Table 15, Ps. intermedius 1624): 1.0 µg/mL (≈ 0.811 µM) | MIC (Bacteroides corrodens [13]): 64 µg/mL (≈ 51.9 µM)

— US4559323A, “A41030 Antibiotics” (Eli Lilly and Company, priority 1984, dated 1985)
